Data reported in patent US11530388B2, “Methods of engineering human induced pluripotent stem cells to produce liver tissue” (University of Pittsburgh—Of the Commonwealth System of …, priority 2017, dated 2022).

What was measured:
[1] = test system: pMSCV-F-del Casp9-IRES-GFP transfected HEK293 cells (iCasp9); experiment: Caspase 3/7 Assay after AP1903 stimulation of iCasp9-transfected cells; format: cell-based, human; conditions: compared to ethanol stimulated cells, 0, 0.1, 1, 10 nmol/l tested, 24 h end point
Description: Because repopulated rat livers with human iPS-Heps can be reconstituted with both rodent cells and human cells, systems to maximize the human component to 100% of the livers and to purify human cells after perfusion/isolation of livers are beneficial. Suicide systems can be designed to potentiate these processes by efficiently inducing apoptosis in transduce cells. An inducible caspase-9 (iCasp9), encoded by a suicide gene engineered from human caspase-9, was incorporated. […]
HEK293 cells are transfected with pMSCV-F-del-Casp9_IRES-GFP (Addgene). • To assess transfection efficiency, cells are co-transfected with a TagRFP control plasmid ( 1/10 of total amount of DNA). • On day 3 transfected cells and negative control are monitored, counted and seeded (1E04 cells/96-well) for Caspase 3/7 Assay (Promega; G8091) Per Transfection/Negative Control cells were seeded as follows: • Per concentration small molecule (chemical inducer of dimerization) AP1903 (ApexBio) two wells, the same amount for negative control. […] T=0 h was measured immediately and T=24 h is measured as end point. (FIG. 13) • iCasp9-IRES-GFP construct is cloned with the rat albumin promoter pEAlb123. • iCasp9 expression (mRNA) is quantified in H4-II-E-C3 by qRT-PCR. […]

[2] = test system: Untransfected HEK293 cells; experiment: Caspase 3/7 Assay after AP1903 stimulation of untransfected control cells; format: cell-based, human; conditions: untransfected HEK293 cells treated with AP1903
Protocol: HEK293 cells are transfected with pMSCV-F-del-Casp9_IRES-GFP (Addgene). • To assess transfection efficiency, cells are co-transfected with a TagRFP control plasmid ( 1/10 of total amount of DNA). • On day 3 transfected cells and negative control are monitored, counted and seeded (1E04 cells/96-well) for Caspase 3/7 Assay (Promega; G8091) Per Transfection/Negative Control cells were seeded as follows: • Per concentration small molecule (chemical inducer of dimerization) AP1903 (ApexBio) two wells, the same amount for negative control. For shuttle control, also wells per concentration are seeded. • On day 4, stimulation with AP1903 starts (0; 0,1; 1; 10 nmol/1). Shuttle control includes cells treated with ethanol only. T=0 h was measured immediately and T=24 h is measured as end point. (FIG. 13) • iCasp9-IRES-GFP construct is cloned with the rat albumin promoter pEAlb123. • iCasp9 expression (mRNA) is quantified in H4-II-E-C3 by qRT-PCR. Cells are transfected with plasmids pEAlb123-iCasp9-IRES-GFP and pcDNA3-CMV-eGFP (positive control). • Cells are harvested and RNA is isolated. iCASP9 and eGFP-specific PCR primers are used to measure expression (FIG. 14).

In the case of `CC[C@@H](C(=O)N1CCCC[C@H]1C(=O)O[C@@H](CCc1ccc(OC)c(OC)c1)c1cccc(OCC(=O)NCCNC(=O)COc2cccc([C@@H](CCc3ccc(OC)c(OC)c3)OC(=O)[C@@H]3CCCCN3C(=O)[C@H](CC)c3cc(OC)c(OC)c(OC)c3)c2)c1)c1cc(OC)c(OC)c(OC)c1` [AP1903], the “AP1903 concentration giving maximum effect in Caspase 3/7 Assay” value [1] is reported as 1 nmol/L and the “effect of AP1903 in Caspase 3/7 Assay” value [2] is reported as “did not show any effect”.
